The values that follow come from patent publication US9133141B2, “Cysteine and cystine bioisosteres to treat schizophrenia and reduce drug cravings” (Marquette University, priority 2008, dated 2015).

One data set concerns rats. Briefly: Prepulse inhibition of acoustic startle, phencyclidine-induced sensorimotor gating deficit. To be noted: for inhibition of startle response when preceded by pre-pulse (sensorimotor gating): rats pretreated 60 min, PCP 1.25 mg/kg SC, FIG. 7. It counts as in vivo, rat. An excerpt: Sensorimotor gating, a process compromised in schizophrenic patients, is often measured using prepulse inhibition whereby a mild auditory stimulus (prepulse, 2-15 db above background) precedes (100 ms) a startle-eliciting auditory stimulus (50 dB above background). Intact sensorimotor gating will result in suppression of the startle reflex when preceded by the prepulse. Since improvement in prepulse inhibition tracks improvement in symptoms that are largely insensitive to current treatments, this paradigm has become one of the most commonly used screening paradigms. FIG. 5 illustrates the capacity of PCP to disrupt prepulse inhibition, rendering the prepulse ineffective in suppressing the startle reflex. PCP is commonly used to disrupt prepulse inhibition because this abnormality, in addition to negative and cognitive symptoms, are insensitive to 1st generation antipsychotics thereby providing predictive validity.
FIG. 7 is a bar graph illustrating inhibition of a startle response in response to a load stimulus (pulse) when preceded by a pre-pulse stimulus (2-15 db above background). Prepulse inhibition is a commonly used paradigm to screen antipsychotic agents for use in treating schizophrenia. The pre-pulse stimulus presented at 15 dB above background reduced the startle response in saline controls (Sal; N=54) by >60% relative to the response elicited following exposure to the pulse only. […] This reflects sensorimotor gating deficits common to patients afflicted with schizophrenia.
In an exemplary experiment, rats are placed on a platform in a sound attenuating chamber (10.875″×14″×19.5″, Hamilton Kinder, CA) that rests on a motion sensing plate. During all sessions, background noise is held constant at 60 dB. A matching session is conducted to determine the magnitude of the average startle response for each rat. This session consists of a five minute habituation period followed by twenty trials.
Seventeen of these trials involve the presentation of a single auditory stimulus (pulse stimulus; 50 dB above the background noise), and in three of these trials, a pre-pulse stimulus (12 dB above background) is presented 100 ms before the pulse auditory stimulus.
Rats are then assigned to various treatment groups so that the magnitude of the startle response is equivalent across all groups. Two days later, a testing session is conducted to assess sensorimotor gating.
The testing session consists of a five minute habituation period, after which rats received 58 discrete trials: 26 trials during which the pulse stimulus (50 dB above background) was presented alone, eight trials each in which the pulse stimulus was preceded by a pre-pulse stimulus (5, 10, or 15 dB above background), and eight background trials with no pulse (no stimulus; background noise only).
The first six pulse alone trials are not included in the average startle stimulus, to achieve a relatively stable level of startle reactivity. The percent of pre-pulse inhibition is determined as 100−(average pre-pulse startle response/average startle stimulus alone)*100.

The subject of a further data set is human subjects. To be noted: cited from earlier work.
The subject of a further data set is cocaine abusers. To be noted: cocaine abusers receiving NAC; cited from earlier work.
For data set [1] the following is noted: in vivo; cited from earlier work.
Another data set relates to rodents. Conditions: cited from earlier work.
The conditions of data set [2]: clinical trials; cited from earlier work.
[3] abbreviates: N=8/group, versus PCP alone and/or N-acetylcysteine 30 mg/kg, Fisher LSD p<0.05.

As for `Cc1noc(C(CSSCC(NC(=O)OC(C)(C)C)c2nc(C)no2)NC(=O)OC(C)(C)C)n1` [Compound 23, tert-Butyl (1R,1′R)-2,2′-disulfanediylbis(1-(3-methyl-1,2,4-oxadiazol-5-yl)ethane-2,1-diyl)dicarbamate], in the data set on rats (setting [3]), the “inhibition of startle response when preceded by pre-pulse (sensorimotor gating)” value (from here on “inhibition of startle response”) is reported as “significant difference”.

On to `CC(C)c1noc([C@@H](N)CSSC[C@H](N)c2nc(C(C)C)no2)n1` [Compound 25, (1R,1′R)-2,2′-Disulfanediylbis(1-(3-isopropyl-1,2,4-oxadiazol-5-yl)ethanamine)], for which, in the data set with rats (setting [3]), the “inhibition of startle response” value is reported as “significant difference”.

Take `CC(=O)N[C@@H](CS)C(=O)O` [N-acetyl cysteine, N-acetylcysteine]: the safety/tolerability profile result in the data set with human subjects is on record as “favorable safety/tolerability profile”. Further, the “phencyclidine-induced deficits in sensorimotor gating” value in the data set with rats (direct delivery into the brain (prefrontal cortex), FIG. 6) is on record as “reverses phencyclidine-induced deficits in sensorimotor gating”. In addition, the “inhibition of startle response” value in the data set with rats (30 mg/kg po) is on record as “failed to exhibit sensorimotor gating”. For the same molecule, the “cocaine use and craving” value in the data set with cocaine abusers is “reduction in cocaine use and craving”. Also, in data set [1], the first-pass metabolism entry is “extensive first-pass metabolism” and the “passive transport across the blood-brain barrier” value is “limited passive transport”. Also, in the data set with rodents, the blocking compulsive drug-seeking result was “effective in blocking compulsive drug-seeking”. The antipsychotic efficacy entry in data set [2] is recorded as “clinical trials establishing the antipsychotic efficacy”.

Consider `c1ccc(C2(N3CCCCC3)CCCCC2)cc1` [phencyclidine], for which, in the data set on rats (rats, phencyclidine only 1.25 mg/kg SC, N=50, regardless of pre-pulse intensity), the “reduction in the startle response elicited by the pulse when preceded by the pre-pulse” value is “failed to exhibit a reduction in the response elicited by the pulse”.

Turning to “tert-Butyl (1R,1′R)-2,2′-disulfanediylbis(1-(3-isopropyl-1,2,4-oxadiazol-5-yl)ethane-2,1-diyl)dicarbamate [Compound 22]”, the “inhibition of startle response” value in the data set with rats (setting [3]) was “significant difference”.
